Assay results as given in US8329904B2, “Azacyclic derivatives” (Hoffmann-La Roche Inc., priority 2009, dated 2012).

Target: T1, human HSL (Homo sapiens, UniProt Q05469)
T1 construct: overlapping PCR to generate a full length human HSL ORF with a 3′-His6 tag; His6 (C); made in house; host or cells: High 5 insect cells (baculovirus, pFast-BAC)
T1 sequence (Q05469 1-1076): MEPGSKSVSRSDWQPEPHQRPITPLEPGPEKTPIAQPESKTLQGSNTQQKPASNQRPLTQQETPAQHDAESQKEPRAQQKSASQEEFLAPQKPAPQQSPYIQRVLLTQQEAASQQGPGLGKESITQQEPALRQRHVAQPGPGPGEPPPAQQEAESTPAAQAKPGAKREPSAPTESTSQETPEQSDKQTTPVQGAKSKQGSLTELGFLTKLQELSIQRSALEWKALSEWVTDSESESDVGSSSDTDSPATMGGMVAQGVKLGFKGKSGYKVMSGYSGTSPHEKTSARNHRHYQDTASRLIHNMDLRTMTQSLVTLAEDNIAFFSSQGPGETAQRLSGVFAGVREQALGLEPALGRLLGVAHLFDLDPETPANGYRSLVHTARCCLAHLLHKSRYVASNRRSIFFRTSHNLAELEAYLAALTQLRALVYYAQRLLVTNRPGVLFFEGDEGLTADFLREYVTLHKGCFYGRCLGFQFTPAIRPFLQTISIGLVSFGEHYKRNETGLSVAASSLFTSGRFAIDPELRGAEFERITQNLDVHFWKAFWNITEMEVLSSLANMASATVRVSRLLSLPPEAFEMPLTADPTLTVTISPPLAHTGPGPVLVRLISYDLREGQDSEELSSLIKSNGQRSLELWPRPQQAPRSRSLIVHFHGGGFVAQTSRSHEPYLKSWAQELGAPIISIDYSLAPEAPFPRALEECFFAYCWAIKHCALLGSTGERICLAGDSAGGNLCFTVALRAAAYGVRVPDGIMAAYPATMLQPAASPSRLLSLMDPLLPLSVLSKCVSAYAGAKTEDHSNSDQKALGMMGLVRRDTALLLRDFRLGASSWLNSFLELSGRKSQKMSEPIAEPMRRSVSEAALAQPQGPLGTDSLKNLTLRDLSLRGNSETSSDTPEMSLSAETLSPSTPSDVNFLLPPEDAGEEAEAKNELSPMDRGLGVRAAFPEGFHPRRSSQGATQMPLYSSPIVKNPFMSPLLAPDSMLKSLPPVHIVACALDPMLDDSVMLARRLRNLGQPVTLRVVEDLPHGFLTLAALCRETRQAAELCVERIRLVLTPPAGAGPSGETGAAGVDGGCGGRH
Assay: Human Hormone-Sensitive Lipase (HSL) Enzyme Inhibition Assay
Format: biochemical
Conditions: colorimetric assay, 2,3-dimercapto-1-propanol tributyrate (DMPT) substrate, 37° C. for 20 minutes, absorbance at 405 nm; read-out: HSL hum IC50
Outline: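 Colorimetric thioester hydrolysis: compounds in DMSO series mixed with DMPT (1.5 mM) in MOPS pH 7.2 with BSA, then baculovirus-expressed His6-tagged full-length human HSL added, 37° C, 20 min. DTNB plus detergents added, 15 min room temperature, absorbance at 405 nm.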

Compound | IC50
O=C1N(c2ccc(OCC(F)(F)F)cc2)CCC12CCN(S(=O)(=O)c1ccccc1Cl)CC2 [Example 115, 8-(2-Chloro-benzenesulfonyl)-2-[4-(2,2,2-trifluoro-ethoxy)-phenyl]-2,8-diaza-spiro[4.5]decan-1-one] | 30 nM
CC(C)c1cc(CS(=O)(=O)N2CCC3(CCN(c4ccc(OC(F)(F)F)cc4)C3=O)CC2)on1 [Example 233, 8-(3-Isopropyl-isoxazol-5-ylmethanesulfonyl)-2-(4-trifluoromethoxy-phenyl)-2,8-diaza-spiro[4.5]decan-1-one] | 200 nM
CC(C)Oc1ccc(N2CCC3(CCN(S(=O)(=O)c4ccccc4OC(F)(F)F)CC3)C2=O)cc1 [Example 87, 2-(4-Isopropoxy-phenyl)-8-(2-trifluoromethoxy-benzenesulfonyl)-2,8-diaza-spiro[4.5]decan-1-one] | 20 nM
O=C1N(c2ccc(OC(F)(F)F)cc2)CCC12CCN(S(=O)(=O)Nc1ccccc1)CC2 [Example 286, 1-Oxo-2-(4-trifluoromethoxy-phenyl)-2,8-diaza-spiro[4.5]decane-8-sulfonic acid phenylamide] | 60 nM
CC(C)(C)CC(=O)N1CCC2(CC1)CCN(c1ccc(OCC(F)(F)F)nc1)C2=O [Example 122, 8-(3,3-Dimethyl-butyryl)-2-[6-(2,2,2-trifluoro-ethoxy)-pyridin-3-yl]-2,8-diaza-spiro[4.5]decan-1-one] | 540 nM
CC(C)CS(=O)(=O)N1CCC2(CCN(c3ccc(OCCC(F)(F)F)cc3)C2=O)CC1 [Example 102, 8-(2-Methyl-propane-1-sulfonyl)-2-[4-(3,3,3-trifluoro-propoxy)-phenyl]-2,8-diaza-spiro[4.5]decan-1-one] | 360 nM
CCC(C)c1ccc(N2CCC3(CCN(S(=O)(=O)c4cccs4)CC3)C2=O)cc1 (stereo not shown) [Example 43, 2-(4-sec-Butyl-phenyl)-8-(thiophene-2-sulfonyl)-2,8-diaza-spiro[4.5]decan-1-one] | 40 nM
CC(Oc1ccc(N2CCC3(CCN(S(=O)(=O)c4ccccc4Cl)CC3)C2=O)cc1)C(F)(F)F (stereo not shown) [Example 125, 8-(2-Chloro-benzenesulfonyl)-2-[4-(2,2,2-trifluoro-1-methyl-ethoxy)-phenyl]-2,8-diaza-spiro[4.5]decan-1-one] | 20 nM
CCc1ccc(N2CCC3(CCN(S(=O)(=O)c4ccccc4C(F)(F)F)CC3)C2=O)cc1 [Example 67, 2-(4-Ethyl-phenyl)-8-(2-trifluoromethyl-benzenesulfonyl)-2,8-diaza-spiro[4.5]decan-1-one] | 60 nM
CCCCN(C)C(=O)N1CCC2(CC1)CCN(c1ccc(OC(F)(F)F)cc1)C2=O [Example 269, 1-Oxo-2-(4-trifluoromethoxy-phenyl)-2,8-diaza-spiro[4.5]decane-8-carboxylic acid butyl-methyl-amide] | 70 nM
CN(C(=O)N1CCC2(CC1)CCN(c1ccc(OC(F)(F)F)cc1)C2=O)c1ccc(C(F)(F)F)cc1 [Example 299, 1-Oxo-2-(4-trifluoromethoxy-phenyl)-2,8-diaza-spiro[4.5]decane-8-carboxylic acid methyl-(4-trifluoromethyl-phenyl)-amide] | 170 nM
O=C1N(c2ccc(C3(F)COC3)cc2)CCC12CCN(S(=O)(=O)c1ccccc1Cl)CC2 [Example 230, 8-(2-Chloro-benzenesulfonyl)-2-[4-(3-fluoro-oxetan-3-yl)-phenyl]-2,8-diaza-spiro[4.5]decan-1-one] | 30 nM
CN(C(=O)N1CCC2(CC1)CCN(c1ccc(OC(F)(F)F)cc1)C2=O)c1ccc(Cl)cc1 [Example 300, 1-Oxo-2-(4-trifluoromethoxy-phenyl)-2,8-diaza-spiro[4.5]decane-8-carboxylic acid (4-chloro-phenyl)-methyl-amide] | 60 nM

Continued by falling IC50, values first:

IC50 | Compound
200 nM | CC1(C(=O)N2CCC3(CC2)CCN(c2ccc(OCC(F)(F)F)cc2)C3=O)CC1(Cl)Cl (stereo not shown) [Example 121, 8-(2,2-Dichloro-1-methyl-cyclopropanecarbonyl)-2-[4-(2,2,2-trifluoro-ethoxy)-phenyl]-2,8-diaza-spiro[4.5]decan-1-one]
140 nM | CCCc1ccc(N2CCC3(CCN(S(=O)(=O)c4ccccc4S(C)(=O)=O)CC3)C2=O)cc1 [Example 57, 8-(2-Methanesulfonyl-benzenesulfonyl)-2-(4-propyl-phenyl)-2,8-diaza-spiro[4.5]decan-1-one]
60 nM | CC(CO)Nc1ncccc1S(=O)(=O)N1CCC2(CCN(c3ccc(OC(F)(F)F)cc3)C2=O)CC1 (stereo not shown) [Example 193, 8-[2-(2-Hydroxy-1-methyl-ethylamino)-pyridine-3-sulfonyl]-2-(4-trifluoromethoxy-phenyl)-2,8-diaza-spiro[4.5]decan-1-one]
50 nM | O=C1N(c2ccc(OC(F)(F)F)cc2)CCC12CCN(S(=O)(=O)c1ccccn1)CC2 [Example 201, 8-(Pyridine-2-sulfonyl)-2-(4-trifluoromethoxy-phenyl)-2,8-diaza-spiro[4.5]decan-1-one]
50 nM | O=C1N(c2ccc(C3CC3)cc2)CCC12CCN(S(=O)(=O)c1cccs1)CC2 [Example 36, 2-(4-Cyclopropyl-phenyl)-8-(thiophene-2-sulfonyl)-2,8-diaza-spiro[4.5]decan-1-one]
30 nM | CCc1ccc(N2CCC3(CCN(S(=O)(=O)c4ccccc4Cl)CC3)C2=O)cc1 [Example 17, 8-(2-Chloro-benzenesulfonyl)-2-(4-ethyl-phenyl)-2,8-diaza-spiro[4.5]decan-1-one]
